Laboratory results reported in patent US20200079758A1, “[4-(PHENYLSULFONYL)PIPERAZIN-1-YL](1H-1,2,3-TRIAZOL-4-YL)METHANONES” (priority 2016, published 2020).

Biological target: T1, recombinant human AKR1C3 (Homo sapiens, UniProt P42330)
T1 construct: GST (cleaved yes); made in house; host or cells: E. coli
T1 sequence (P42330 1-323): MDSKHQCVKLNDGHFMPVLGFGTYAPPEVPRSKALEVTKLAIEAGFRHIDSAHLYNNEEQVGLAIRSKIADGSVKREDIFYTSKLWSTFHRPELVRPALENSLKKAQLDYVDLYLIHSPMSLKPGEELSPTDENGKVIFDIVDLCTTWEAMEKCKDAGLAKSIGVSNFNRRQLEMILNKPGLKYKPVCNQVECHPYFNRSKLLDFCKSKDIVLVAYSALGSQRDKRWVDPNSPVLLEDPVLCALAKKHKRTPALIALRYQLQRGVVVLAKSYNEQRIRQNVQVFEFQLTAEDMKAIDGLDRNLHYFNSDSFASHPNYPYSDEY
Assay: AKR1C3-inhibitory activity assay (generation of Coumberol from Coumberone)
Format: biochemical
Settings: Coumberone 0.3 μM, NADPH 10 μM, 22° C., typically 90 min, average or median values
Protocol: The AKR1C3-inhibitory activity of the substances of the present invention was measured in the AKR1C3 assay described in the paragraphs below.
Essentially, the enzyme activity is measured by quantification of the generation of Coumberol from Coumberone (Halim et al. J. AM. CHEM. SOC. 2008, 130:14123-14128 and Yee et al. Proc. Natl. Acad. Sci. USA 2006, 103:13304-13309). In this test, the increase of the highly fluorescent Coumberol by NADPH- (nicotinamide adenine dinucleotide phosphate)-dependent reduction of the non-fluorescent Coumberone by AKR1C3 was determined.
The enzyme used was recombinant human AKR1C3 (Aldo-keto reductase family 1 member C3; GenBank Accession No. NM_003739). This was expressed in E. coli as GST (glutathione S transferase) fusion protein and purified by glutathione Sepharose affinity chromatography. The GST was removed by digestion with thrombin and subsequent size exclusion chromatography (Dufort, I., Rheault, P., Huang, X F., Soucy, P., and Luu-The, V., Endocrinology 140, 568-574 (1999)).
For the assay, 50 nl of a 100-fold concentrated solution of the test substance in DMSO were pipetted into a black low-volume 384-well microtiter plate (Greiner Bio-One, Frickenhausen, Germany), 2.5 μl of a solution of AKR1C3 in assay buffer [50 mM potassium phosphate buffer pH 7, 1 mM DTT, 0.0022% (w/v) Pluronic F-127, 0.01% BSA (w/v) and protease inhibitor cocktail (Complete, EDTA-free Protease Inhibitor Cocktail from Roche)] were added and the mixture was incubated for 15 min to allow pre-binding of the substances to the enzyme prior to the enzyme reaction. The enzyme reaction was then started by addition of 2.5 μl of a solution of NADPH (20 μM→final concentration in 5 μl of assay volume is 10 μM) and Coumberone (0.6 μM→final concentration in 5 μl of assay volume is 0.3 μM) in assay buffer, and the resulting mixture was incubated at 22° C. for the reaction time of typically 90 min. The concentration of the AKR1C3 and the reaction time was adapted to the respective activity of the enzyme preparation and adjusted such that the assay was carried out in the linear range. Typical AKR1C3 concentrations were in the region of 1 nM. The reaction was stopped by addition of 2.5 μl of a stop solution consisting of 3 μM EM-1404 as inhibitor (U.S. Pat. No. 6,541,463) in 50 mM HEPES pH7.5 (3 μM EM-1404→final concentration in 7.5 μl of assay volume is 1 μM). The fluorescence of the Coumberole was then measured at 520 nm (excitation at 380 nm) using a suitable measuring instrument (Pherastar from BMG Labtechnologies). The intensity of the fluorescence was used as a measure of the amount of Coumberole formed and thus of the enzyme activity of AKR1C3. The data were normalized (enzyme reaction without inhibitor=0% inhibition; all other assay components, but no enzyme=100% inhibition).

IC50 | SMILES
10 nM | C[C@@H]1CN(S(=O)(=O)c2cccc(Cl)c2F)C[C@H](C)N1C(=O)c1c[nH]nn1 [Example 55, {(2R,6S)-4-[(3-chloro-2-fluorophenyl)sulfonyl]-2,6-dimethylpiperazin-1-yl}(1H-1,2,3-triazol-4-yl)methanone]
13 nM | C[C@@H]1CN(S(=O)(=O)c2cc(F)cc(F)c2)C[C@H](C)N1C(=O)c1c[nH]nn1 [Example 56, {(2R,6S)-4-[(3,5-difluorophenyl)sulfonyl]-2,6-dimethylpiperazin-1-yl}(1H-1,2,3-triazol-4-yl)methanone]
10 nM | C[C@@H]1CN(S(=O)(=O)c2cccc(C(F)(F)F)c2)C[C@H](C)N1C(=O)c1c[nH]nn1 [Example 57, [(2R,6S)-2,6-dimethyl-4-{[3-(trifluoromethyl)phenyl]sulfonyl}piperazin-1-yl](1H-1,2,3-triazol-4-yl)methanone]
2 nM | C[C@@H]1CN(S(=O)(=O)c2cc(Cl)cc(Cl)c2)C[C@H](C)N1C(=O)c1c[nH]nn1 [Example 58, {(2R,6S)-4-[(3,5-dichlorophenyl)sulfonyl]-2,6-dimethylpiperazin-1-yl}(1H-1,2,3-triazol-4-yl)methanone]
4 nM | C[C@@H]1CN(S(=O)(=O)c2cc(F)ccc2F)C[C@H](C)N1C(=O)c1c[nH]nn1 [Example 59, {(2R,6S)-4-[(2,5-difluorophenyl)sulfonyl]-2,6-dimethylpiperazin-1-yl}(1H-1,2,3-triazol-4-yl)methanone]
47 nM | C[C@@H]1CN(S(=O)(=O)c2ccc(F)c(F)c2)C[C@H](C)N1C(=O)c1c[nH]nn1 [Example 60, {(2R,6S)-4-[(3,4-difluorophenyl)sulfonyl]-2,6-dimethylpiperazin-1-yl}(1H-1,2,3-triazol-4-yl)methanone]
1 nM | Cc1ccccc1S(=O)(=O)N1C[C@H](C)N(C(=O)c2cnn[nH]2)C[C@H]1C [Example 69, {(2S,5R)-2,5-dimethyl-4-[(2-methylphenyl)sulfonyl]piperazin-1-yl}(1H-1,2,3-triazol-5-yl)methanone]
2 nM | C[C@@H]1CN(C(=O)c2cnn[nH]2)[C@@H](C)CN1S(=O)(=O)c1ccccc1OC(F)(F)F [Example 72, [(2S,5R)-2,5-dimethyl-4-{[2-(trifluoromethoxy)phenyl]sulfonyl}piperazin-1-yl](1H-1,2,3-triazol-5-yl)methanone]
1 nM | C[C@@H]1CN(C(=O)c2cnn[nH]2)[C@@H](C)CN1S(=O)(=O)c1ccccc1Cl [Example 73, {(2S,5R)-4-[(2-chlorophenyl)sulfonyl]-2,5-dimethylpiperazin-1-yl}(1H-1,2,3-triazol-5-yl)methanone]
1 nM | C[C@@H]1CN(C(=O)c2cnn[nH]2)[C@@H](C)CN1S(=O)(=O)c1cccc(Cl)c1 [Example 74, {(2S,5R)-4-[(3-chlorophenyl)sulfonyl]-2,5-dimethylpiperazin-1-yl}(1H-1,2,3-triazol-5-yl)methanone]
1 nM | C[C@@H]1CN(C(=O)c2cnn[nH]2)[C@@H](C)CN1S(=O)(=O)c1ccccc1Br [Example 76, {(2S,5R)-4-[(2-bromophenyl)sulfonyl]-2,5-dimethylpiperazin-1-yl}(1H-1,2,3-triazol-5-yl)methanone]
2 nM | Cc1c(Cl)cccc1S(=O)(=O)N1C[C@H](C)N(C(=O)c2cnn[nH]2)C[C@H]1C [Example 77, {(2S,5R)-4-[(3-chloro-2-methylphenyl)sulfonyl]-2,5-dimethylpiperazin-1-yl}(1H-1,2,3-triazol-5-yl)methanone]
2 nM | C[C@@H]1CN(C(=O)c2cnn[nH]2)[C@@H](C)CN1S(=O)(=O)c1c(F)cccc1F [Example 79, {(2S,5R)-4-[(2,6-difluorophenyl)sulfonyl]-2,5-dimethylpiperazin-1-yl}(1H-1,2,3-triazol-5-yl)methanone]

Further lines, the molecule ahead of its results:

SMILES | IC50
C[C@@H]1CN(C(=O)c2cnn[nH]2)[C@@H](C)CN1S(=O)(=O)c1ccc(Br)cc1 [Example 61, {(2S,5R)-4-[(4-bromophenyl)sulfonyl]-2,5-dimethylpiperazin-1-yl}(1H-1,2,3-triazol-5-yl)methanone] | 4 nM
CC(=O)Nc1ccc(S(=O)(=O)N2C[C@H](C)N(C(=O)c3cnn[nH]3)C[C@H]2C)cc1 [Example 62, N-(4-{[(2R,5S)-2,5-dimethyl-4-(1H-1,2,3-triazol-5-ylcarbonyl)piperazin-1-yl]sulfonyl}phenyl)acetamide] | 88 nM
C[C@@H]1CN(C(=O)c2cnn[nH]2)[C@@H](C)CN1S(=O)(=O)c1ccc(Cl)cc1 [Example 63, {(2S,5R)-4-[(4-chlorophenyl)sulfonyl]-2,5-dimethylpiperazin-1-yl}(1H-1,2,3-triazol-5-yl)methanone] | 3 nM
C[C@@H]1CN(C(=O)c2cnn[nH]2)[C@@H](C)CN1S(=O)(=O)Cc1ccccc1 [Example 64, [(2S,5R)-4-(benzylsulfonyl)-2,5-dimethylpiperazin-1-yl](1H-1,2,3-triazol-5-yl)methanone] | 114 nM
C[C@@H]1CN(C(=O)c2cnn[nH]2)[C@@H](C)CN1S(=O)(=O)c1cccc2ccccc12 [Example 65, [(2S,5R)-2,5-dimethyl-4-(naphthalen-1-ylsulfonyl)piperazin-1-yl](1H-1,2,3-triazol-5-yl)methanone] | 2 nM
C[C@@H]1CN(C(=O)c2cnn[nH]2)[C@@H](C)CN1S(=O)(=O)c1ccc(F)cc1 [Example 66, {(2S,5R)-4-[(4-fluorophenyl)sulfonyl]-2,5-dimethylpiperazin-1-yl}(1H-1,2,3-triazol-5-yl)methanone] | 4 nM
COc1ccc(S(=O)(=O)N2C[C@H](C)N(C(=O)c3cnn[nH]3)C[C@H]2C)cc1 [Example 67, {(2S,5R)-4-[(4-methoxyphenyl)sulfonyl]-2,5-dimethylpiperazin-1-yl}(1H-1,2,3-triazol-5-yl)methanone] | 7 nM
C[C@@H]1CN(C(=O)c2cnn[nH]2)[C@@H](C)CN1S(=O)(=O)c1cccc2cccnc12 [Example 68, [(2S,5R)-2,5-dimethyl-4-(quinolin-8-ylsulfonyl)piperazin-1-yl](1H-1,2,3-triazol-5-yl)methanone] | 7 nM
Cc1ccc(C)c(S(=O)(=O)N2C[C@H](C)N(C(=O)c3cnn[nH]3)C[C@H]2C)c1 [Example 70, {(2S,5R)-4-[(2,5-dimethylphenyl)sulfonyl]-2,5-dimethylpiperazin-1-yl}(1H-1,2,3-triazol-5-yl)methanone] | 1 nM
C[C@@H]1CN(C(=O)c2cnn[nH]2)[C@@H](C)CN1S(=O)(=O)c1ccc(OC(F)(F)F)cc1 [Example 71, [(2S,5R)-2,5-dimethyl-4-{[4-(trifluoromethoxy)phenyl]sulfonyl}piperazin-1-yl](1H-1,2,3-triazol-5-yl)methanone] | 22 nM
Cc1cccc(S(=O)(=O)N2C[C@H](C)N(C(=O)c3cnn[nH]3)C[C@H]2C)c1 [Example 75, {(2S,5R)-2,5-dimethyl-4-[(3-methylphenyl)sulfonyl]piperazin-1-yl}(1H-1,2,3-triazol-5-yl)methanone] | 1 nM
C[C@@H]1CN(C(=O)c2cnn[nH]2)[C@@H](C)CN1S(=O)(=O)c1cccc(Br)c1 [Example 78, {(2S,5R)-4-[(3-bromophenyl)sulfonyl]-2,5-dimethylpiperazin-1-yl}(1H-1,2,3-triazol-5-yl)methanone] | 1 nM
CC(=O)Nc1cccc(S(=O)(=O)N2C[C@H](C)N(C(=O)c3cnn[nH]3)C[C@H]2C)c1 [Example 80, N-(3-{[(2R,5S)-2,5-dimethyl-4-(1H-1,2,3-triazol-5-ylcarbonyl)piperazin-1-yl]sulfonyl}phenyl)acetamide] | 104 nM
